According to US10336748B2, “Methyoxy-substituted pyrrolopyridine modulators of RORC2 and methods of use thereof” (Pfizer Inc., priority 2015, dated 2019):
pIC50: −log10 of the molar value.

How the values were obtained:
[1] = biological target: T1, RORC2 ligand binding domain (6-His-RORC2 LBD) (Homo sapiens, UniProt P51449); assay: Co-activator recruitment by TR-FRET; type: biochemical; conditions: 6.3 nM RORC2 LBD, 200 nM SRC1-2 coactivator peptide, 3 hr room temperature
T1 construct: made in house; host or cells: E. coli
T1 sequence (P51449 269-508 limits assumed): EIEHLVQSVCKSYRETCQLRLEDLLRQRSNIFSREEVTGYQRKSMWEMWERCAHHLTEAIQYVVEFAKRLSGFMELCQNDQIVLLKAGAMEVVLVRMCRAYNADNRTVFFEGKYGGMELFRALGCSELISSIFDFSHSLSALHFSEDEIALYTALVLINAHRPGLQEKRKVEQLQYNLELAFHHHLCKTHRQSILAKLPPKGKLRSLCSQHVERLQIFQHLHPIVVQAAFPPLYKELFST
Text: The activity of compound of the invention can be determined by a co-activator recruitment by TR-FRET (time-resolved fluorescence resonance energy transfer) assay. In general, the assay is based on the interaction between N-terminally Six-Histidine-tagged-RORC2 ligand binding domain (6-His-RORC2 LBD), expressed in E. coli and purified by affinity chromatography, and biotin-coactivator peptide SRC1-2 (biotin-aminohexanoic acid-[…]-NH2; SEQ ID NO: 1) containing the LXXLL consensus domain which is responsible for receptor binding. This interaction is detected by addition of Europium labeled-anti-His antibody (Ex. 337 nm, Em. 620 nm, which binds to 6His) and Streptavidin-APC (Ex. 620 nm, Em. 665 nm, which binds to biotin). When receptor and coactivator are bound to each other, upon shining light at 337 nm on the sample, the Europium emits fluorescence that excites APC due to close proximity (FRET) and this signal is measured at 665 nm. Due to the long lasting fluorescence emission of Europium, the non-specific, short-lived fluorescence is time-resolved (TR) from the fluorescence of interest. Inhibitors of the interaction of receptor and coactivator peptide are detected by a decrease in TR-FRET signal.
Specifically, in one embodiment the aforementioned assay was performed as outlined below. The assay was carried out in black polystyrene. 384-well plates in a total assay volume of 50.5 μL. The assay buffer contained 50 mM TRIS-HCL pH 7.5, 1 mM NaCl, 2 mM MgCl2, 0.5 mg/mL bovine serum albumin, and 5 mM dithiothreitol. The final concentration of reagents was 6.3 nM RORC2 LBD, 200 nM SRC1-2, 50 nM streptavidin APC, 1 nM Europium-labeled anti-His antibody, and varying concentrations of compounds such that final concentration of DMSO is 1% (v/v). The assay steps were: (1) dispensing […] compound at 100× final concentration in DMSO (test wells) or DMSO only (control wells for no inhibition); and (2) dispensing 50 μL mixture of the other assay components including receptor (test wells) or excluding receptor (control wells for maximal inhibition).
Assay mixtures were incubated are room temperature for 3 hr and read in EnVision 2100 Multilabel Reader (PerkinElmer Life Sciences) at Excitation Filter 320, Emission Europium Filter 615, Emission APC Filter 665, Dichroic Mirror D400/D630.
TR-FRET signal was determined by calculating the ratio of 665 nm by 615 nm and […] values of compounds of the invention (Table 1) were determined by the non-linear regression analysis of dose response curves.

human Th17 cells = assay: IL-17 production from human Th17 cells; type: cell-based; conditions: 144 h; IL-17A in supernatant by ELISA (MSD) after 6 days, human CD4+ T cells, anti-CD3 + anti-CD28 + cytokine cocktail
Protocol: The activity of compound of the invention can be also be determined by an IL-17 production from human Th17 cells assay. In general, this assay measures blockade of IL-17 production, the signature cytokine of T helper 17 (Th17) cells, by compounds. Purified human CD4+ T cells are stimulated with anti-CD3+anti-CD28 and incubated with a cytokine cocktail that induce their differentiation into Th17 in the absence or presence of various concentrations of compound. After 6 days, IL-17A concentration is measured in the cell culture supernatant with an ELISA kit (MSD).
Preparation of human CD4+ T cells. CD4+ T cells were purified from buffy coats from healthy donors (obtained from Massachusetts General Hospital) by negative selection the following procedure: Mixing 25 mL of blood with 1 mL of Rosette Sep CD4+ T cell enrichment cocktail (StemCell Technologies) followed by application of a layer of 14 mL Ficoll Paque Plus (Amersham GE Healthcare) and subsequent centrifugation at 1200 g for 20 min at room temperature. The Ficoll layer was then harvested and washed with phosphate saline buffer containing 2% (v/v) fetal bovine serum and cells were resuspended with RPMI medium containing 10% (v/v) fetal bovine serum and 10% (v/v) DMSO, frozen and kept in LN2 until used.
On the first day of the assay, a vial containing 10^7 CD4+ T cells is thawed rapidly in 37° C. water bath, immediately transferred into 20 mL X-Vivo 15 medium (Lonza), is spun for 6 min at 300×g, the supernatant is discarded, and the resulting pellet is re-suspended at 10^6 cells/mL in […] fresh X-Vivo 15 medium, followed by storage overnight in a tissue culture vessel in a humidified chamber at 37° C. and 5% CO2. Serial dilutions of compounds of the invention are prepared at 10× final concentration in X-Vivo15 medium containing 3% (v/v) DMSO.
On the second day of the assay, a 384-well tissue culture plate was coated with 10 μg/mL anti-hCD3 (eBioscience) at 50 μL/well. After 2 hr at 37° C., the supernatant is discarded and the coated plates are kept in a sterile tissue culture hood.
Cytokine plus anti-CD28 cocktail is prepared by mixing 25 ng/mL hIL-6 (Peprotech), 5 ng/mL hTGFbeta1 (Peprotech), 12.5 ng/mL IL-1beta (Peprotech), 25 ng/mL hIL-21, 25 ng/mL hIL-23 (R&D Systems), and 1 ug/mL anti-hCD28 (eBioscience) in X-Vivo 15 medium. The cytokine plus anti-CD28 cocktail with CD4+ cells is prepared such that the cocktail is diluted 10-fold and cell density is 0.22×10^6/mL. The mixture is incubated 1 hr at 37° C.
90 μL (20,000 cells) dispensed per well in the anti-hCD3 coated plate prepared as noted above.
10 μL 10× compound is added per well (final DMSO=0.3%) from the compound plate that was previously prepared, followed by 6 days of incubation in a tissue culture vessel in a humidified chamber at 37° C. and 5% CO2.
On day six of the assay, production of IL-17A in 10 μL of the supernatant is determined by sandwich ELISA using 384w hIL17 MSD plates following the manufacturer's protocol. Measurement is carried out in a Sector Imager 6000 by the same manufacturer. Signal units from the instrument are converted to pg/mL using a calibration curve with known amounts of IL-17A. IC50 values of test compounds (Table 2) are determined by the non-linear regression analysis of dose response curves.

SMILES | pIC50 [1] | pIC50 (human Th17 cells)
COc1c(NC(=O)c2cccc(C#N)c2)cnc2c1c(C1CCN(C(=O)[C@H](C)C(C)C)CC1)cn2C [Example 6, (R)-3-cyano-N-(3-(1-(2,3-dimethylbutanoyl)piperidin-4-yl)-4-methoxy-1-methyl-1H-pyrrolo[2,3-b]pyridin-5-yl)benzamide] | 7.82 | 7.80
COc1c(NC(=O)c2cccc(C#N)c2)cnc2c1c(C1CCN(C(=O)[C@@H](C)C(C)C)CC1)cn2C [Example 14, (S)-3-cyano-N-(3-(1-(2,3-dimethylbutanoyl)piperidin-4-yl)-4-methoxy-1-methyl-1H-pyrrolo[2,3-b]pyridin-5-yl)benzamide] | 7.85 | 7.38
COc1c(NC(=O)c2cccc(C#N)c2)cnc2c1c([C@@H]1[C@@H]3CC[C@H]1CN(C(=O)C1CCCC1)C3)cn2C [Example 23, 3-cyano-N-(3-((1R,5S,8r)-3-(cyclopentanecarbonyl)-3-azabicyclo[3.2.1]octan-8-yl)-4-methoxy-1-methyl-1H-pyrrolo[2,3-b]pyridin-5-yl)benzamide] | 7.51 | 7.42
COc1c(NC(=O)c2cccc(C#N)c2)cnc2c1c(C1CCN(C(=O)C3CCCC3)CC1)cn2C [Example 8, 3-cyano-N-(3-(1-(cyclopentanecarbonyl)piperidin-4-yl)-4-methoxy-1-methyl-1H-pyrrolo[2,3-b]pyridin-5-yl)benzamide] | 7.93 | 7.53
COc1ccc(C(=O)Nc2cnc3c(c(C4CCN(C(=O)C5CCCCC5)CC4)cn3C)c2OC)cc1C#N [Example 13, 3-cyano-N-(3-(1-(cyclohexanecarbonyl)piperidin-4-yl)-4-methoxy-1-methyl-1H-pyrrolo[2,3-b]pyridin-5-yl)-4-methoxybenzamide] | 7.81 | 8.02
COc1c(NC(=O)c2cccc(C#N)c2)cnc2c1c([C@@H]1CCN(C(=O)[C@H](C)C(C)(C)C)C(C)(C)C1)cn2C [Example 26, 3-cyano-N-(3-((R)-2,2-dimethyl-1-((R)-2,3,3-trimethylbutanoyl)piperidin-4-yl)-4-methoxy-1-methyl-1H-pyrrolo[2,3-b]pyridin-5-yl)benzamide] | 7.98 | 8.19
COc1cc(C#N)cc(C(=O)Nc2cnc3c(c(C4CCN(C(=O)C5CCCC5)CC4)cn3C)c2OC)c1 [Example 12, 3-cyano-N-(3-(1-(cyclopentanecarbonyl)piperidin-4-yl)-4-methoxy-1-methyl-1H-pyrrolo[2,3-b]pyridin-5-yl)-5-methoxybenzamide] | 7.69 | 7.22
COc1ccc(C(=O)Nc2cnc3c(c([C@@H]4CCN(C(=O)C5CCCC5)C(C)(C)C4)cn3C)c2OC)cc1C#N [Example 30, (R)-3-cyano-N-(3-(1-(cyclopentanecarbonyl)-2,2-dimethylpiperidin-4-yl)-4-methoxy-1-methyl-1H-pyrrolo[2,3-b]pyridin-5-yl)-4-methoxybenzamide] | 7.87 | 8.17
COc1c(NC(=O)c2cccc(C#N)c2)cnc2c1c(C1CCN(C(=O)[C@@H](C)C(C)(C)C)CC1)cn2C [Example 15, (S)-3-cyano-N-(4-methoxy-1-methyl-3-(1-(2,3,3-trimethylbutanoyl)piperidin-4-yl)-1H-pyrrolo[2,3-b]pyridin-5-yl)benzamide] | 8.07 | 7.63

Stronger by pIC50 [1], values ahead:

pIC50 [1] | pIC50 (human Th17 cells) | SMILES
8.32 | 7.95 | COc1c(NC(=O)c2cccc(C#N)c2)cnc2c1c([C@@H]1CCN(C(=O)C3CCCCC3)C(C)(C)C1)cn2C [Example 27, (R)-3-cyano-N-(3-(1-(cyclohexanecarbonyl)-2,2-dimethylpiperidin-4-yl)-4-methoxy-1-methyl-1H-pyrrolo[2,3-b]pyridin-5-yl)benzamide]
8.09 | 8.05 | COc1ccc(C(=O)Nc2cnc3c(c([C@@H]4CCN(C(=O)C(C)C)C(C)(C)C4)cn3C)c2OC)cc1C#N [Example 29, (R)-3-cyano-N-(3-(1-isobutyryl-2,2-dimethylpiperidin-4-yl)-4-methoxy-1-methyl-1H-pyrrolo[2,3-b]pyridin-5-yl)-4-methoxybenzamide]
8.33 | 7.55 | COc1c(NC(=O)c2cccc(C#N)c2)cnc2c1c(C1CCN(C(=O)c3cccc4c3CCC4)CC1)cn2C [Example 7, 3-cyano-N-(3-(1-(2,3-dihydro-1H-indene-4-carbonyl)piperidin-4-yl)-4-methoxy-1-methyl-1H-pyrrolo[2,3-b]pyridin-5-yl)benzamide]
8.24 | 7.96 | COc1ccc(C(=O)Nc2cnc3c(c([C@@H]4CCN(C(=O)C5CCCCC5)C(C)(C)C4)cn3C)c2OC)cc1C#N [Example 32, (R)-3-cyano-N-(3-(1-(cyclohexanecarbonyl)-2,2-dimethylpiperidin-4-yl)-4-methoxy-1-methyl-1H-pyrrolo[2,3-b]pyridin-5-yl)-4-methoxybenzamide]
8.14 | 7.44 | COc1c(NC(=O)c2cccc(C#N)c2)cnc2c1c(C1CCN(C(=O)c3c(C)cccc3F)CC1)cn2C [Example 16, 3-cyano-N-(3-(1-(2-fluoro-6-methylbenzoyl)piperidin-4-yl)-4-methoxy-1-methyl-1H-pyrrolo[2,3-b]pyridin-5-yl)benzamide]
8.21 | 7.97 | COc1c(NC(=O)c2cccc(C#N)c2)cnc2c1c(C1CCN(C(=O)[C@H](C)C(C)(C)C)CC1)cn2C [Example 5, (R)-3-cyano-N-(4-methoxy-1-methyl-3-(1-(2,3,3-trimethylbutanoyl)piperidin-4-yl)-1H-pyrrolo[2,3-b]pyridin-5-yl)benzamide]
